Reference: patent US8299096B2, “Method for treating pulmonary diseases using rho kinase inhibitor compounds” (priority 2008, dated 2012)
Entries after “also recorded” stand apart in the source; their conditions may differ.

Experiments:
[1] = system: rat tracheal rings pretreated with IL-1β and TNF-α or vehicle; assay: Effect of inflammatory cytokines on tracheal relaxation; conditions: 300 nM carbachol
Protocol: Male Sprague-Dawley rats weighing 301-325 gm were sacrificed by asphyxiation in a CO2 chamber. Trachea were excised, cleaned of connective tissue and cut into cylindrical segments of 2-3 mm length. Tissues were treated for 18 hours at 37° C. in F12 media with penicillin-streptomycin and 0.1% BSA alone or with 10 ng/ml IL-1β and 100 ng/ml TNF-α. Tissues were then washed free of cytokines with Krebs buffer. Contractile tensions were measured using an isometric force transducer (Grass Instruments) as described for Example 3 and signals were analyzed using specialized software (Chart v5.5, ADInstruments). Tissues were treated with 300 nM carbachol for 10 to 15 minutes to induce a contractile response. Test Compounds were added cumulatively to the bath every 30 minutes and reductions in tension were recorded. Basal tension was subtracted from all values and data were reported as a percentage of the maximal carbachol-induced contraction. Data were fit to the Hill equation using GraphPad Prism v5 software.

[2] = system: ovalbumin-sensitized mice; assay: Bronchodilator assay in ovalbumin-sensitized mouse model of asthma (Penh); type: in vivo; conditions: for Reduction in airway hyperresponsivness: oral doses
Protocol: Male BALB/c mice were ordered from Charles River Laboratories (Raleigh, N.C.). The animals were approximately 19 to 21 grams at time of receipt. Upon arrival, the animals were randomized into groups of five males per cage and assigned to a dosing group. Animals were quarantined for 7 days under test conditions. They were observed daily for general health status and ability to adapt to the water bottles.
Animals were sensitized on day 0 and 14 of study by an intraperitoneal injection with 20 μg of ovalbumin (ova) and 2.0 mg aluminum hydroxide (alum) which initiates the development of a specific T-helper (Th) cells type 2 resulting in asthmatic animals. One group of animals received an injection of saline to use as non-asthmatic control animals. All animals were challenged with aerosolized 1% ova once daily for 25 minutes on days 28, 29, and 30 (Zosky, et al. Respiratory Research, 2004; 5:15). Aerosol challenge consists of using an Aerogen Aeroneb nebulizer and controller with a particle size of 4-6 μm mass median aerodynamic diameter (MMAD) with a distribution of 400 μl per minute. This aerosol challenge is necessary to target the Th2-driven allergic inflammation in the lower airways.
The test compounds and the control vehicle were administered to animals on the day of airway hyperreactivity evaluation 30 minutes to 1 hour before the evaluation to determine the bronchodilator effects of the compounds according to the bronchodilator dosing paradigm (FIG. 3A). Compounds were administered p.o. (orally), i.p. (intraperitoneally) at 15 μMol/kg unless otherwise noted (Table 4). Alternatively, compounds were administered i.t. (intratracheally) at varying doses as shown (FIG. 3B). On day 32 of the experiment, airway hyperreactivity was evaluated by placing conscious, unrestrained animals in a whole body plethysmometer (Buxco Wilmington, N.C.) and exposing them to escalating doses of nebulized methacholine, a known bronchial constrictor which acts through the muscarinic receptors of the lungs, (doses: […]-50 mg/ml). Exposure to the methacholine doses consisted of a 3 minute period during which a nebulizer was aerosolizing the methacholine and an additional 3 minute period following the cessation of nebulization. Over this 6 minute period, the plethysmometer monitors and generates numerical values for all parameters of the breath pattern. Enhanced pause (Penh), a unitless index of airway hyperreactivity, is derived from the expiratory side of the respiratory waveform measured via the plethysmograph and is used as an indirect measure of airway resistance and hyperreactivity. […] Following the methacholine dose response, all animals were anesthetized, bled and euthanized.
Within each experiment, a mouse was given a single compound and exposed to increasing doses of methacholine [0 (baseline), 0.375, 0.75, 1.5, 3, 6, 12, 25, 50 mg/ml]. The Penh value at each of the dose levels of methacholine represents the 6-minute average response. Change from baseline (CFB) in Penh was calculated at each methacholine dose and the area under the curve (AUC) for these CFB values was calculated using the trapezoidal rule. This same approach was applied for each mouse across multiple experiments.
For statistical analyses, a linear mixed-effects model where the response was the log 10 transformed value of AUC described above was used. Data from equal experimental conditions across experiments performed on different days were pooled for statistical analysis and data reporting. The various compounds were compared adjusting for the log 10-transformed baseline value of Penh and the chamber (1 of 10) of the plethysmometer each mouse was contained in during an experiment. A random intercept for each experiment was assumed to account for possible similarities of the results obtained from a given experiment (i.e., as a “blocking effect”).
For Table 4 and Table 5, Penh values are reported as log 10 transformed AUC values. […]

[3] = system: ovalbumin-sensitized mice; assay: Anti-inflammatory assay in ovalbumin-sensitized mouse model of asthma (BALF cells and cytokines); type: in vivo
Excerpt: Mouse model of asthma via ovalbumin sensitization was created as described in Example 5. The anti-inflammatory dosing paradigm (FIG. 4) was utilized to evaluate the anti-inflammatory effects of experimental compounds. The anti-inflammatory dosing paradigm consists of dosing the animals once a day starting on day 27 and finishing on either day 30 or 31 (1 hr prior to the aerosolized ovalbumin challenges on days 28 to 30) but not on day 32 when hyper-reactivity evaluation occurs.
Bronchoalveolar lavage fluid (BALF) was collected by infusing 3.0 ml of saline with 10% fetal calf serum into the lungs via the trachea and then withdrawing the fluid. The total amount of cells/ml of BALF fluid was determined via manual cell count on hemocytometer. The BALF was centrifuged, supernatant removed and analyzed for cytokine concentrations as described below, and cell pellet reconstituted in 500 μL of fluid. Cytospin slides were prepared from the cell pellet using 100 μL of fluid and spinning samples for 5 minutes at 5000 rpms in a cytospin centrifuge. Following Hema3 stain, relative percentages of individual leukocytes were determined on a 200 cell count for each sample. The final concentration of individual leukocyte cell types per ml of BALF was determined by multiplication of the relative percentage of individual leukocytes with the total amount of cells/ml of BALF fluid.
The concentrations of cytokines in the BALF samples were determined using commercially available Bio-plex kits (Bio-Rad) for the detection of mouse IL-5, IL-13, and Eotaxin. The analysis of cytokine levels was measured using the Bio-Plex 200 (Bio-Rad) system according to the manufacturer's instructions.

[4] = Rat oral pharmacokinetics (plasma); type: in vivo
Protocol: Plasma (EDTA K2 anticoagulant) was collected from male, cannulated, CD Sprague Dawley rats to determine the pharmacokinetics of formulations containing compound inhibitors of Rho kinase. Each animal was dosed orally with a 4 ml/kg solution or suspension of each test compound in 10 mM acetate buffered saline, pH 4.5 at a final concentration range of 20-30 μmol/kg. Blood was collected at 0.25, 0.5, 1, 2, 4, 6, 8, and 24 hours. Plasma samples were assayed for the concentration of the test compound using an on-line, solid phase extraction LC/MS/MS analysis system.
Samples were analyzed on a QSTAR Elite, hybrid quadrupole time-of-flight mass spectrometer (Applied Biosystems, Framingham, Mass.) coupled with a Symbiosis Pharma integrated, on-line SPE-HPLC system (Spark Holland Inc., Plainsboro, N.J.). Analyst QS 2.0 software was used for instrument control, data acquisition and processing. […] Mobile Phase A consisted of 0.1% ammonium hydroxide in water and Mobile Phase B consisted of 0.1% formic acid in acetonitrile. Pharmacokinetic analyses were performed using WinNonlin software version 5.2 (Pharsight Corporation, Mountain View, Calif.).

[5] = system: LPS-challenged mice; assay: LPS-induced neutrophilia and cytokine production assay; type: in vivo, mouse
Protocol: Male BALB/c mice, approximately 19 to 21 grams, were ordered from Charles River Laboratories (Raleigh, N.C.). All animals were challenged with aerosolized LPS (10 μg/ml) for 25 minutes on study day 0. LPS aerosol was generated using an Aerogen Aeroneb nebulizer and controller providing a flow of 400 μl/min and a particle size of 2-4 μm MMAD. Rolipram was administered i.p at 20 mg/kg. […] Four hours following LPS challenge, BALF was collected using a total of 3 ml of 0.9% sodium chloride containing 10% fetal calf serum. Total cell counts were determined using the Coulter Counter. For differential evaluations, BALF was centrifuged and cytospin slides prepared and stained with Hema3 stain. Manual leukocyte counts were then completed on 200 cells. The final concentration of individual leukocyte cell types per ml of BALF was determined by multiplication of the relative percentage of individual leukocytes with the total amount of cells/ml of BALF fluid. The concentration of IL-1β in the BALF samples was determined using commercially available Bio-plex kits (Bio-Rad). The analysis of cytokine levels was measured using the Bio-Plex 200 (Bio-Rad) system according to the manufacturer's instructions.

[6] = system: rat tracheal rings; assay: Tracheal relaxation assay, carbachol precontracted rings; conditions: Rattus norvegicus, read-out: IC50 Avg, tracheal ring relaxation
Protocol: Trachea were excised, cleaned of connective tissue and cut into cylindrical segments of 2-3 mm length. Two stainless steel wires were guided through the lumen of the tracheal ring. One wire was fixed in the tissue bath and the other was connected to a force transducer via surgical silk. […] Indomethacin (1 μM), a cyclooxygenase inhibitor, was added to the Krebs buffer and was present throughout the experiments. Contractile tensions were measured using an isometric force transducer (Grass Instruments) and signals were analyzed using specialized software (Chart v5.5, ADInstruments). The preparations were allowed to equilibrate at a resting tension of 0.3 to 0.5 gm prior to two challenges with 60 mM KCl to assess tissue viability. After washing, tissues were treated with 1 μM carbachol for 10 to 15 minutes to induce a contractile response. Test Compounds were added cumulatively to the bath every 30 minutes and reductions in tension were recorded. Basal tension was subtracted from all values and data were reported as a percentage of the maximal carbachol-induced contraction. Data were fit to the Hill equation using GraphPad Prism v5 software.

[7] = system: human neutrophils; assay: Human neutrophil chemotaxis (fMLP-induced); type: cell-based; conditions: 1 h, read-out: Chemotaxis Avg IC50
Protocol: Peripheral blood from healthy human volunteers was collected and the neutrophils were isolated by Ficoll-paque density centrifugation followed by dextran sedimentation and hypotonic lysis of the red blood cells. Neutrophil chemotaxis was assessed using a modified Boyden Chamber (Neuroprobe, 96-well) with a 3 μm pore polycarbonate membrane. The ability of the tested compounds to block chemotaxis induced by a 1 μM fMLP challenge during a one hour incubation at 37° C. with 5% CO2 was assessed in a dose response manner.

[8] = system: ovalbumin-sensitized mice; assay: Prevention of airway hyperreactivity development, anti-inflammatory dosing paradigm (Penh); type: in vivo, mouse; conditions: oral, 15 μMol/kg once a day during days 27 to 31
[9] = system: human eosinophils; assay: Human eosinophil chemotaxis (eotaxin-induced); type: cell-based; conditions: 1 nM eotaxin, one hour
Excerpt: Human Eosinophil Isolation: Peripheral blood from healthy human volunteers was collected and the PMNs separated via Ficoll-paque density centrifugation followed by hypotonic lysis of the red blood cells. Subsequently, the human eosinophils were isolated from the cell suspension via StemCell Technologies Human Eosinophil Enrichment kit (Cat. No 19256) according to the manufacturer's recommendations. Briefly, unwanted cells were specifically labeled with dextran-coated magnetic nanoparticles using bispecific Tetrameric Antibody Complexes (TAC) directed against cell surface antigens on human blood cells: […] The unwanted cells are then separated from the unlabelled eosinophils using the EasySep® magnetic isolation procedure. In Vitro Chemotaxis: […]

[10] = system: murine eosinophils; assay: Murine eosinophil chemotaxis (eotaxin-induced); type: cell-based, mouse; conditions: 10 nM eotaxin, one hour
Protocol: Mouse Eosinophil Isolation: Bronchoalveolar lavage was collected from ovalbumin sensitized and challenged mice in a volume of 2.5 mL lavage buffer. The lavage buffer was 0.9% saline with 10% fetal bovine serum. The pooled lavages were maintained on ice until use. The murine eosinophils were isolated using MACS cell separation (Miltenyi Biotech) by depletion of B cells and T cells by positive selection following incubation with antibody conjugated magnetic beads specific for CD45-R (B220) and CD90 (Thy 1.2), which bind B cells and T cells, respectively.
In Vitro Chemotaxis: Eosinophil chemotaxis was assessed using a modified Boyden Chamber (Neuroprobe, 96-well) with a 5 μm pore membrane. The ability of the tested compounds to block chemotaxis induced by a 10 nM eotaxin challenge (mouse) or 1 nM eotaxin challenge (human) during one hour incubation at 37° C. with 5% CO2 was assessed. Chemotaxis was quantified via microscopy by counting the number of migrated cells in at least 3 view fields per treatment.

[11] = Compound plasma concentrations in mice at 15 min post administration; type: in vivo, mouse; conditions: mouse plasma, 15 minutes, oral
Protocol: Additionally, compound concentrations were determined in the plasma and lungs of male, ovalbumin-sensitized, Balb/c mice from a murine model of asthma. Test compounds were formulated in water or 1% polysorbate 80 and dosed at 15 μmol/kg for intraperitoneal (IP) or oral (PO) administration or formulated for intratracheal (IT) administration and dosed at 5 μmol/kg, which directly targets the lungs. Following completion of the in vivo study, mice were euthanized and blood and plasma collected approximately 2.5-3 hours post administration of test compound for bronchodialator (BD) studies and 24 hours post administration for anti-inflamatory (AI) studies. Lungs were homogenized in Matrix A lysing tubes using a FastPrep 24 tissue and cell homogenizer (MP Biomedicals, Solon, Ohio). Both plasma samples and lung extracts were assayed for compound concentrations using an on-line, solid phase extraction LC/MS/MS system.

[12] = system: rat aorta; assay: Aortal relaxation assay, norepinephrine precontracted; conditions: 100 nM norepinephrine, 100 μM compound
Protocol: The effects of compounds to induce relaxation of pre-contracted rat pulmonary artery and rat aorta were determined. Male Sprague-Dawley rats weighing 301-325 gm were sacrificed by asphyxiation in a CO2 chamber. Pulmonary artery or aorta were excised, cleaned of connective tissue and cut into cylindrical segments of 2-3 mm length. The preparations were mounted in a tissue bath by tying two threads of surgical silk through the lumen of the vessel. One silk was used to anchor the tissue to a metal wire in the bath and the other silk was connected to a force transducer. Preparations were mounted in 5 ml water-jacketed organ baths (Radnoti Glass Technology) filled with Krebs buffer (95 mM NaCl, 5 mM KCl, 2.6 mM CaCl2, 1.2 mM MgSO4, 24.9 mM NaHCO3, 1.2 mM KH2PO4, 10 mM glucose) maintained at 37° C. and gassed with 95% O2 and 5% CO2. Contractile tensions were measured using an isometric force transducer (Grass Instruments) and signals were analyzed using specialized software (Chart v5.5, ADInstruments). […] For pulmonary artery, compounds were added cumulatively to the bath every 30 minutes and reductions in tension were recorded. […] For aorta, a single dose of compound was added and reductions in tension were recorded.

[13] = system: A-10 rat thoracic aorta cells; assay: PDGF-stimulated smooth muscle cell proliferation assay (BrdU); type: cell-based; conditions: 10 ng/mL PDGF, A-10 cells
Protocol: Effects on cell proliferation were measured using a bromodeoxyuridine (BrdU) incorporation assay. […] Serum free media containing 0.1% BSA was added to the cells. 24 hours later the media was removed and replaced with warmed serum free media. […] Proliferation was then monitored using the BrdU Cell Proliferation Assay, HTS (Calbiochem cat. #HTS01). BrdU was allowed to incorporate into cells for 24 hours prior to the addition of fixative/denaturing solution and the fluorometric detection of incorporated BrdU using a BrdU antibody as per manufacturer's directions. Data are reported as a percent of the PDGF-stimulated BrdU incorporation.

[14] = rat, oral, 20-30 μmol/kg, plasma, mean n = 3
[15] = 15 μmol/kg/oral on days 27 to 31

SMILES: CS(=O)(=O)Nc1cccc(CN2CCC[C@H](Nc3ccc4[nH]ncc4c3)C2)c1 [Compound 1.091]
- Potency in cytokine-pretreated versus vehicle-pretreated tissues [1]: slightly more potent in cytokine-pretreated tissues
- Relaxation of tracheal rings from vehicle-pretreated and cytokine-pretreated tissues ([1]; 10 ng/ml IL-1β and 100 ng/ml TNF-α, 18 hours): fully efficacious
- Reduction in airway hyperresponsiveness ([2]; i.p. route of administration, compared to oral dosing): enhanced reduction
- Bronchodilatory response ([2]; intratracheal administration): robust bronchodilatory response
- Reduction in airway hyperresponsivness [2]: did not yield a significant reduction
- Eosinophils in BALF ([3]; dosed i.t. to day 30, anti-inflammatory dosing paradigm): reduction of eosinophils
- Oral bioavailability ([4]; oral dosing): poor
- AUC (0-last) [4, 14]: below the level of quantification
- Cmax [4, 14]: below the level of quantification
- Efficacy on neutrophilia compared to rolipram dosed i.p. ([5]; dosed intratracheally): similar
- IL-1β levels in BALF ([5]; intratracheal administration, LPS-challenged mice): reduction
- LPS-induced pulmonary neutrophilia (BALF) ([5]; intratracheal dosing one hour prior to LPS challenge, mice): significant reduction; also recorded: dose-dependent inhibition

SMILES: Cc1cncc2cccc(S(=O)(=O)N3CCCNC[C@@H]3C)c12 [Compound H-1152, 4-methyl-5-(2-methyl-[1,4]diazepan-1-sulfonyl)isoquinoline]
- IC50 [6]: 164 nM
- IC50 [7]: 4350 nM

SMILES: CS(=O)(=O)Nc1cccc(CN2CC[C@@H](Nc3cccc4cnccc34)C2)c1 [Compound 2.038]
- Reduction in airway hyperresponsivness [2]: statistically significant reduction
- Eotaxin level in BALF [3, 15]: reduced levels
- IL-5 level in BALF [3, 15]: reduced levels
- IL-13 level in BALF [3, 15]: reduced levels
- Airway eosinophil infiltration (eosinophils per ml of BALF) ([3]; dosed orally to day 31, anti-inflammatory dosing paradigm): reduced
- Prevention of airway hyperreactivity to metacholine on Day 32 [8]: prevention of airway hyperreactivity
- Eotaxin-induced chemotactic response of human eosinophils [9]: inhibited
- Eotaxin-induced chemotactic response of murine eosinophils [10]: inhibited
- Detection in mouse plasma 15 minutes after oral dosing [11]: readily detectable

SMILES: OCCOc1cccc(CN2CC[C@@H](Nc3cccc4cnccc34)C2)c1 [Compound 2.039]
- Norepinephrine-induced tension of aortal ring [12]: fully reversed

SMILES: CSc1ccc(CN2CC[C@@H](Nc3cccc4cnccc34)C2)cc1 [Compound 2.026]
- Percent of PDGF Induced Proliferation at 1 μM Avg ([13]; 1 μM): 74.5%
- Percent of PDGF Induced Proliferation at 10 μM Avg ([13]; 10 μM): 52.0%
